Structures are written as SMILES. Read-outs that look alike come from different tables or passages of the source. Where only a bound is given, the exact number is not on record here.

The test system of data set [1] is CpG-ODN effect on thymidine uptake by WEHI 231 B-cells. The data set is described as follows: Inhibition of CpG-ODN effect on thymidine uptake by WEHI 231 B-cells treated with anti-surface IgM. The data set is classed as cell-based, murine. From the text:
The ability of analogs to inhibit an immunostimulatory effect of CpG-ODN was examined. This assay measures the reversal of the protection by CpG-ODN against surface IgM induced killing of WEHI 231 cells.

In a further data set the test system is quadruplex DNA. The data set is described as follows: Quadruplex DNA stabilization. Type of data set: binding. The source says:
Since nucleic acids are involved and several compounds of this study have been shown previously to strongly stabilize a triple-helix DNA structure, it was hypothesized initially that stabilization of the triple helix complex is part of the mechanism. […] In addition, compound 1 binds weakly to RNA (Wilson et al., 1993).

The test system of another data set is triple-helix DNA. As to conditions: cited from earlier work.
The next data set has as its system duplex DNA. As to conditions: cited from earlier work.
For data set [2] the following is noted: experimental, ring nitrogen of the quinoline; taken from Strekowski et al., J Med. Chem. 1996; cited from earlier work.
Data set [3] has as its system WEHI 231 cells. The data set is described as follows: Uptake of Texas Red-labeled CpG-ODN 1760 by flow cytometry. The data set is classed as cell-based, murine. The conditions noted are these: 5 ug/ml Texas Red CpG-ODN 1760. On the procedure: FIG. 6. […] The cells were then washed three times, and fixed. The cellular uptake of fluorescent CpG-ODN was estimated by flow cytometry. […] .
After incubation with the additions indicated, the cells were centrifuged and resuspended three times into Hanks buffered salt solution at 37° to remove surface bound ODN, and then resuspended and fixed in 2% paraformaldehyde for analysis in the University of-Iowa Flow Cytometry Facility. 10,000 events were recorded using a Coulter EPICS 753 at 488/600 nm, gating out dead cells. The mean cellular fluorescence was recorded.
The effect of chloroquine and non-fluorescent analogs on the uptake of Texas Red-labeled CpG-ODN 1760 was investigated. […] . Flow cytometry measures cell-associated fluorescence because signals derived from dead cells (which take up ODN avidly, (Tonkinson and Stein, 1994)) are easily gated out of the analysis.
In general terms: A flow cytometer gives signals particle by particle.

The subject of the next data set is CpG ODN 1760. The data set is described as follows: DNA thermal melting at 260 nm. Type of data set: binding. The conditions noted are these: 0.3 moles of compound per base, MES with 150 mM KCl, pH 4.4. On the procedure:
Thermal melting studies were conducted at 260 nm with a Cary spectrophotometer interfaced to a microcomputer. A thermistor fixed into a reference cuvette was used to monitor the temperature. The DNA oligomer was added to 1 mL of buffer (MES with 150 mM KCl, pH 4.4) in 1 cm path length reduced-volume quartz cells. Studies were generally conducted a at concentration of 5×10-^5M bases. […].
Structural nucleic acids with duplex or single-stranded folded conformations generally give sigmoid thermal melting curves characteristic of thermal unfolding of the structures. This unfolding results in a change in the UV spectrum. […]

In data set [4] the test system is WEHI 231 cells. The conditions noted are these: 1 μM.
In data set [5] the test system is WEHI 231 cells. The data set is described as follows: Confocal microscopy of subcellular distribution of internalized CpG-ODN.
For a further data set, the system named is RNA. The conditions noted are these: cited from earlier work.
Data set [6] has as its system WEHI 231 cells. The data set is described as follows: Monensin effect on cellular concentration of quinacrine. The data set is classed as cell-based, murine. The conditions noted are these: Mus musculus, WEHI231, 0.5 h; 1 uM quinacrine, 30 min; read-out: Monensin concentration for half maximal inhibition of quinacrine uptake and loss of quinacrine from preloaded cells. As to the method: FIG. 5. Monensin: Cells were incubated with 1 uM quinacrine 17 or compound 227 for 30 min. Monensin at the indicated concentration was added either at the same time as the analog or at the end of the 30 min incubation, and the cellular concentration of the analog was determined by fluorescence.
Both effects were half maximal at a monensin concentration of about 1 μM (FIG. 5). Similar results were obtained with other analogs.

Where [7] appears, read: concentration for half-maximal inhibition of CpG-ODN effect on thymidine uptake by WEHI 231 B-cells in presence of anti-sIgM, estimated experimental error ± 15%, read-out: EC50.
The mark [8] stands for this setting: concentration required for 50% blockage of the ability of CpG-ODN to rescue WEHI 231 cells from anti-surface IgM-induced cell death, read-out: 50% Efficacy.
Setting [9] is: Mus musculus, WEHI231, concentration for half-maximal inhibition of CpG-ODN effect on thymidine uptake by WEHI 231 B-cells in presence of anti-sIgM, estimated experimental error ± 15%, read-out: EC50.
[10] abbreviates: Mus musculus, WEHI231, concentration required for 50% blockage of the ability of CpG-ODN to rescue WEHI 231 cells from anti-surface IgM-induced cell death, read-out: 50% Efficacy.

In the case of `CCCCc1ccc(Nc2cc(-c3ccc4ccccc4c3)nc3ccccc23)cc1` [Compound 26], the EC50 in data set [1] (setting [7]) was over 10000 nM.

As for `CN(C)CCNc1cc(-c2cccc3ccccc23)nc2ccccc12` [Compound 3], the EC50 in data set [1] (setting [7]) was 39.8 nM. In the data set on quadruplex DNA, the “Stabilization of quadruplex DNA” value is given as “do not stabilize”. The “Triplex DNA stabilization / binding” value in the data set with triple-helix DNA is “does not promote triplex DNA formation and does not bind to the triple DNA structure”. Further, in the data set with duplex DNA, the “Binding to duplex DNA” value is recorded as “does not bind at all”.

As for `CN(C)CCCCNc1ccnc2ccccc12` [Compound 14], the EC50 in data set [1] (setting [7]) was 316 nM. Regarding `CN(C)CCCCCCNc1cc(-c2ccc3ccccc3c2)nc2ccccc12` [OZ-123], in data set [1] (setting [8]), the EC50 was 5.9 nM. Turning to `Oc1c(CN2CCCCC2)cc(Nc2cc(-c3ccc4ccccc4c3)nc3ccccc23)cc1CN1CCCCC1` [Compound 30], the EC50 in data set [1] (setting [9]) was 1.5 nM. With `C=C[C@H]1C[N@@]2CC[C@H]1C[C@H]2[C@H](O)c1ccnc2ccc(OC)cc12` [Quinine, reference compound], the EC50 in data set [1] (setting [10]) came to 23000 nM.

With `Cc1ccc(-c2cc(NCCCN(C)C)c3ccccc3n2)cc1` [Compound 12], in data set [1] (setting [7]), the EC50 is 11.5 nM. In the case of `CC(Nc1cc(-c2ccc3ccccc3c2)nc2ccccc12)C(O)c1ccccc1` (centres unmarked) [Compound 22], in data set [1] (setting [7]), the EC50 was 1000 nM. Regarding `CN(C)CCSc1cc(-c2ccc3ccccc3c2)nc2ccccc12` [Compound 9], the EC50 in data set [1] (setting [7]) was 2400 nM. Also, in [2], the pKa – broadly, the pH at which an ionisable group is half protonated – is given as 4.4. Take `CN(C)CCNC(=O)c1cc(-c2ccc3ccccc3c2)nc2ccccc12` [Compound 10]: in [1] (setting [7]), the EC50 was over 10000 nM. The pKa in data set [2] is recorded as 2.9. Turning to `OCCCCCCNc1cc(-c2ccc3ccccc3c2)nc2ccccc12` [Compound 24], the EC50 in data set [1] (setting [7]) is 170 nM. On the same count and under the same terms, in the case of `CC(C)(C)OC(=O)NCCNc1cc(-c2ccc3ccccc3c2)nc2ccccc12` [Compound 20] it was 570 nM. `CCN(CC)CCCC(C)Nc1ccnc2cc(Cl)ccc12` (centres unmarked) [Chloroquine, chloroquine]: in data set [1] (1 μM), the “Suppression of CpG-ODN responses” value was “completely suppresses”. Further, the “Influence on CpG-ODN uptake” value with WEHI 231 cells [3] was “no significant influence”. Moreover, the “Change in the thermal melting curve of the free CpG-ODN” value with CpG ODN 1760 is on record as “did not cause any significant change”. The “Increase in the pH of CpG-ODN-containing compartment” value with WEHI 231 cells [4] is given as “less than 0.01 pH units”. In the data set with WEHI 231 cells [5], the “Influence on subcellular distribution of internalized CpG-ODN” value is “did not influence”.

Regarding `CN(C)CCCNc1ccnc2ccccc12` [Compound 11], in [1] (setting [7]), the EC50 was 4400 nM. Same read-out and setting: with `O=C(CCCO)NCCCN1CCN(CCCNc2cc(-c3ccc4ccccc4c3)nc3ccccc23)CC1` [Compound 25] the figure was 25.1 nM; with `Cc1ccc(-c2cc(NCCN(C)C)c3ccccc3n2)cc1` [Compound 4], 12.3 nM. Turning to `CC(CCCC(C)(C)O)Nc1cc(-c2ccc3ccccc3c2)nc2ccccc12` (centres unmarked) [Compound 21], the EC50 in [1] (setting [7]) was 1150 nM. For `CCN(CC)CCCC(Nc1c2ccc(Cl)cc2nc2ccc(OC)cc12)c1ccncc1` (centres unmarked) [10591-T/2, reference compound], the EC50 in data set [1] (setting [8]) turned out to be 30.2 nM.

As to `CN(C)CCNc1cc(/C=C/c2ccccc2)nc2ccccc12` [Compound 5], the EC50 in [1] (setting [7]) is 6.5 nM. Same read-out and setting: in the case of `CN(C)CCCCCCNc1cc(-c2ccc3ccccc3c2)nc2ccccc12` [Compound 16] it was 5.9 nM; in that of `CN(C)CCCNc1cc(-c2ccc3ccccc3c2)nc2ccccc12` [Compound 13], 11 nM. Turning to `OCCOCCNc1cc(-c2ccc3ccccc3c2)nc2ccccc12` [Compound 23], in [1] (setting [7]), the EC50 is 330 nM. As to `CCN(CCO)CCCC(C)Nc1ccnc2cc(Cl)ccc12` (centres unmarked) [Hydroxychloroquine, reference compound], the EC50 in [1] (setting [10]) was 407 nM. In the case of `CN(C)CCNc1cc(-c2ccc3ccccc3c2)nc2ccccc12` [Compound 1], the EC50 in [1] (setting [7]) was 9.1 nM. Further, the “Stabilization of quadruplex DNA” value in the data set on quadruplex DNA was “do not stabilize”. Further, in [2], the pKa is on record as 7.1. Also, the “Triplex DNA stabilization / binding” value with triple-helix DNA is “one of the best triplex DNA stabilizing agents known to date”. Also, the “Binding to duplex DNA” value in the data set on duplex DNA is on record as “binds weakly”. Moreover, the “Binding to RNA” value in the data set with RNA was “binds weakly”.

Consider `CN(C)CCCCNc1cc(-c2ccc3ccccc3c2)nc2ccccc12` [Compound 15], for which the EC50 in data set [1] (setting [7]) was 4 nM. Turning to `COc1ccc2nc3cc(Cl)ccc3c(NC3CCCCC3Nc3ccnc4cc(Cl)ccc34)c2c1` (racemic) [Ism 9], the EC50 in data set [1] (setting [8]) is 105 nM.

Regarding `CN1CCN(Cc2cc(Nc3cc(-c4ccc5ccccc5c4)nc4ccccc34)cc(CN3CCN(C)CC3)c2O)CC1` [Compound 32], the EC50 in [1] (setting [9]) was 0.24 nM. Consider `COc1ccc2nc3cc(Cl)ccc3c(NC3CCCCC3Nc3c4ccc(Cl)cc4nc4ccc(OC)cc34)c2c1` (racemic) [Ism 16], for which the EC50 in data set [1] (setting [8]) turned out to be 14.5 nM. Consider `CN(C)CCNc1cc(-c2ccc(C(F)(F)F)cc2)nc2ccccc12` [Compound 6], for which the EC50 in data set [1] (setting [7]) is 155 nM.

Regarding `CCCCN(CCCC)CCCNc1cc(-c2ccc3ccccc3c2)nc2ccccc12` [MHQ-6], the EC50 in data set [1] (setting [8]) is 16.3 nM. For the compound `CN(C)CCN(C)c1cc(-c2ccc3ccccc3c2)nc2ccccc12` [Compound 7], the EC50 in [1] (setting [7]) was 416 nM. Also, the pKa in data set [2] is listed as 6.2. Consider `Oc1c(CN2CCOCC2)cc(Nc2cc(-c3ccc4ccccc4c3)nc3ccccc23)cc1CN1CCOCC1` [Compound 29], for which the EC50 in [1] (setting [9]) was 10 nM. Consider `Oc1c(CN2CCCC2)cc(Nc2cc(-c3ccc4ccccc4c3)nc3ccccc23)cc1CN1CCCC1` [Compound 31], for which the EC50 in data set [1] (setting [9]) was 1.2 nM. `CN(C)CCNc1cc(-c2ccc3ccccc3c2)nc2ccccc12` [LS-8]: in data set [1] (setting [8]), the EC50 was 9.5 nM. Take `OCCc1ccc(Nc2cc(-c3ccc4ccccc4c3)nc3ccccc23)cc1` [Compound 27]: the EC50 in [1] (setting [7]) is 510 nM. With `CN(C)CCNc1cc(-c2ccc3ccc4ccccc4c3c2)nc2ccccc12` [Compound 2], the EC50 in data set [1] (setting [7]) was 11 nM. As for `Oc1ccc(Nc2cc(-c3ccc4ccccc4c3)nc3ccccc23)cc1` [Compound 28], the EC50 in data set [1] (setting [9]) was 320 nM.

`CC[C@@]1([C@@H]2O[C@@H]([C@H]3O[C@@](O)(CO)[C@H](C)C[C@@H]3C)C[C@@H]2C)CC[C@H]([C@]2(C)CC[C@]3(C[C@H](O)[C@@H](C)[C@@H]([C@@H](C)[C@@H](OC)[C@H](C)C(=O)O)O3)O2)O1` [Monensin]: the EC50 in the data set on WEHI 231 cells [6] is about 1000 nM.

These data come from patent publication US6479504B1, “Antagonism of immunostimulatory CpG-oligonucleotides by 4-aminoquinolines and other weak bases” (The University of Iowa Research Foundation, priority 1999, dated 2002).
